{"source": "paper PMC5201249", "about": "“Agrobacterium tumefaciens estC, Encoding an Enzyme Containing Esterase Activity, Is Regulated by EstR, a Regulator in the MarR Family” (PLoS ONE, 2016)", "target": "T1, EstR (Atu5211) (Agrobacterium fabrum, UniProt A9CLK2)", "T1 construct": "full length, non-tagged, pETBlue-2, E. coli BL21(DE3), heparin and Q-Sepharose columns", "T1 sequence (A9CLK2 1-155)": "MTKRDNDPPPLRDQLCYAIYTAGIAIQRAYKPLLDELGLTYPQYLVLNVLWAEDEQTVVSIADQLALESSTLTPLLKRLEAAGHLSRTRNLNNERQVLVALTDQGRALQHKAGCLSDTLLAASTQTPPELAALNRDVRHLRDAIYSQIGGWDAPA", "experiment": "gel mobility shift: loss of EstR binding to […]-labelled 314-bp estR-estC promoter DNA", "details": "1 mM CHP; pH 7.0, 25 C; covalent (oxidation of sensing Cys16)"}
{"compound": "CC(C)(OO)c1ccccc1", "note": "[CHP, cumene hydroperoxide]", "values": [{"measurement": "gel mobility shift: loss of EstR binding to 32P-labelled 314-bp estR-estC promot", "result": "prior CHP treatment of EstR prevented the repressor from binding to the promoter fragment"}]}
